Assay results as given in ChEMBL document CHEMBL3232931 (J Med Chem, 2014).
Calls of active or inactive are those of the source. The rule behind the calls is not given here.

How the values were obtained:
[1] = biological target: Ubiquitin carboxyl-terminal hydrolase 20 (Homo sapiens, UniProt Q9Y2K6); test: Inhibition of human USP20 using Ub-rhodamine 110 as substrate
[2] = biological target: T1, Cathepsin K (Homo sapiens) (UniProt P43235); test: Inhibition of human cathepsin K using fluorogenic peptide as substrate at 31 uM
T1 sequence (whole entry): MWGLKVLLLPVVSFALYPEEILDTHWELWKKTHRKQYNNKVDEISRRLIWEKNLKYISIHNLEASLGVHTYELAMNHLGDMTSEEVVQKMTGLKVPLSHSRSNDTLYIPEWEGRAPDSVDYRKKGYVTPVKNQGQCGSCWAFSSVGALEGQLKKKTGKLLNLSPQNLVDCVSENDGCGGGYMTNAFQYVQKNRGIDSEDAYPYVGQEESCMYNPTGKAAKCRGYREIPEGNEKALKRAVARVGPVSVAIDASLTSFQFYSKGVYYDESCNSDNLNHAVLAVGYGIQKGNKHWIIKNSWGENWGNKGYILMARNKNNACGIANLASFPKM

BL21-DE3 = test: Inhibition of SARS coronavirus papain-like protease (amino acids 1541 to 1855) expressed in Escherichia coli BL21 (DE3) cells assessed as decrease in AMC release using Z-RLRGG-AMC as substrate by serum shift assay based multimode plate reader analysis in presence of 5 to 20% human serum albumin; details: Severe acute respiratory syndrome-related coronavirus
[3] = biological target: T2, Ubiquitin carboxyl-terminal hydrolase 21 (Homo sapiens, UniProt Q9UK80); test: Inhibition of human USP21 using Ub-rhodamine 110 as substrate
T2 sequence (Q9UK80 whole entry): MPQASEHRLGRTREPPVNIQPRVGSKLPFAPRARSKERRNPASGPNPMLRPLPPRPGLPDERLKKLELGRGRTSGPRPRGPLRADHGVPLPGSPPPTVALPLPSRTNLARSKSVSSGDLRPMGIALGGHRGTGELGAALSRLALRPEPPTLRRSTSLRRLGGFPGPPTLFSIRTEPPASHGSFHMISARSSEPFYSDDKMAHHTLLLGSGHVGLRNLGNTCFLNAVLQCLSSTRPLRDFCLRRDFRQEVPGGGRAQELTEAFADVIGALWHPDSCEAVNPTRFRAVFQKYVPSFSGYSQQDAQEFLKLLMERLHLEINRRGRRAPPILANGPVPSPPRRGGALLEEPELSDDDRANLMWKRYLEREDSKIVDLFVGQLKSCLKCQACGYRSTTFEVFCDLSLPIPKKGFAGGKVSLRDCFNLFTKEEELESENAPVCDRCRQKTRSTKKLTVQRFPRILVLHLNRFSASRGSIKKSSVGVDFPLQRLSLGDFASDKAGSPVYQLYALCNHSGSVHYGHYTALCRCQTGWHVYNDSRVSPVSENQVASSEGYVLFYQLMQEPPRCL

[4] = biological target: T3, Ubiquitin carboxyl-terminal hydrolase 2 (Homo sapiens, UniProt O75604); test: Inhibition of human USP2 using Ub-rhodamine 110 as substrate
T3 sequence (O75604 whole entry): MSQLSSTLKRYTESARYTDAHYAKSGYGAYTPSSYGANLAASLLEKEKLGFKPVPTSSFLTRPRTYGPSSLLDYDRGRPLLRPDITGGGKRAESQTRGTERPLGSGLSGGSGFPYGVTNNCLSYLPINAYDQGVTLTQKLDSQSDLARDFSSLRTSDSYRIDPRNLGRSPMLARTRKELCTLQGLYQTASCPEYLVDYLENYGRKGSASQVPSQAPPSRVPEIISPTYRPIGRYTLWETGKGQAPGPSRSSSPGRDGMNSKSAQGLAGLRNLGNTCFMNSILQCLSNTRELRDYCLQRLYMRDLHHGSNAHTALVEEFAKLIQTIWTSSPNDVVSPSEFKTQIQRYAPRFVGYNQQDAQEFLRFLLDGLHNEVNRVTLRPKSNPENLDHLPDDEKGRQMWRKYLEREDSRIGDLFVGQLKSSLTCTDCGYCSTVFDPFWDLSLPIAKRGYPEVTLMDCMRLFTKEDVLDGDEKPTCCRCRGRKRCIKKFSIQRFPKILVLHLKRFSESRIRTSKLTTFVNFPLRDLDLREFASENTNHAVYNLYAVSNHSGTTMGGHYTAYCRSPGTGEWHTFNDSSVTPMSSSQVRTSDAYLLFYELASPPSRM

[5] = biological target: Ubiquitin carboxyl-terminal hydrolase 7 (Homo sapiens, UniProt Q93009); test: Inhibition of human USP7 using Ub-rhodamine 110 as substrate at 31 uM
Chain of Ubiquitin carboxyl-terminal hydrolase 7 (Q93009 whole entry, looked up): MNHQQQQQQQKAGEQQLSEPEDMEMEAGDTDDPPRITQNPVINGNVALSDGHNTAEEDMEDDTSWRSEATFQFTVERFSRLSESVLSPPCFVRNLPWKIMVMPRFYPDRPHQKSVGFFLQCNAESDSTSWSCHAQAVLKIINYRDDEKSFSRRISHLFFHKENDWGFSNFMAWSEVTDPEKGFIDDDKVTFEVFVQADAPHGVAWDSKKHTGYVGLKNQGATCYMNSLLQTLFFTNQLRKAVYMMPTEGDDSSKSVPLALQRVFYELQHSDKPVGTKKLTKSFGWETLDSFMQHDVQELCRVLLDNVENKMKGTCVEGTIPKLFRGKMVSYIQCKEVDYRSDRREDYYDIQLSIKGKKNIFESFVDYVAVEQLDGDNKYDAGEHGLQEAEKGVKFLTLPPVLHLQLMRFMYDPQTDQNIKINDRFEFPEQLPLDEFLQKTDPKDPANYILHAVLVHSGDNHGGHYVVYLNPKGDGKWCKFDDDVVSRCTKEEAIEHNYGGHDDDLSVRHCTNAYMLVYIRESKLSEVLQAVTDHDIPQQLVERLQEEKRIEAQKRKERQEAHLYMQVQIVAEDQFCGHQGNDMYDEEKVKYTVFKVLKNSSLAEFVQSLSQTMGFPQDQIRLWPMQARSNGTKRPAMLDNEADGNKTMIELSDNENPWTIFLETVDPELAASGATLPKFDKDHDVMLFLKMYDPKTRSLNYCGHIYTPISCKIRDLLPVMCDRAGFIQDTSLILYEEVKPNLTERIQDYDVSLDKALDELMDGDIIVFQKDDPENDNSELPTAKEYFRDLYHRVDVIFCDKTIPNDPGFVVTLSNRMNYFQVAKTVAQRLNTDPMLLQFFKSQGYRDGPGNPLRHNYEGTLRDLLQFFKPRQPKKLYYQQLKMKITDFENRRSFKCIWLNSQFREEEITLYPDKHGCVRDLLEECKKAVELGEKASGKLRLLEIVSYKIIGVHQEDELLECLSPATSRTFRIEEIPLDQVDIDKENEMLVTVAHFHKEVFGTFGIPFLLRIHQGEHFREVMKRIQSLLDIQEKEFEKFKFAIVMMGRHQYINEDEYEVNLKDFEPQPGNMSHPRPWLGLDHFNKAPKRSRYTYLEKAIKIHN

[6] = biological target: T4, Ubiquitin carboxyl-terminal hydrolase 21 (Homo sapiens) (UniProt Q9UK80); test: Inhibition of human USP21 using Ub-rhodamine 110 as substrate at 31 uM
T4 sequence (whole entry): T2 sequence (Q9UK80 whole entry)

Chain of Ubiquitin carboxyl-terminal hydrolase 20 (Q9Y2K6 whole entry): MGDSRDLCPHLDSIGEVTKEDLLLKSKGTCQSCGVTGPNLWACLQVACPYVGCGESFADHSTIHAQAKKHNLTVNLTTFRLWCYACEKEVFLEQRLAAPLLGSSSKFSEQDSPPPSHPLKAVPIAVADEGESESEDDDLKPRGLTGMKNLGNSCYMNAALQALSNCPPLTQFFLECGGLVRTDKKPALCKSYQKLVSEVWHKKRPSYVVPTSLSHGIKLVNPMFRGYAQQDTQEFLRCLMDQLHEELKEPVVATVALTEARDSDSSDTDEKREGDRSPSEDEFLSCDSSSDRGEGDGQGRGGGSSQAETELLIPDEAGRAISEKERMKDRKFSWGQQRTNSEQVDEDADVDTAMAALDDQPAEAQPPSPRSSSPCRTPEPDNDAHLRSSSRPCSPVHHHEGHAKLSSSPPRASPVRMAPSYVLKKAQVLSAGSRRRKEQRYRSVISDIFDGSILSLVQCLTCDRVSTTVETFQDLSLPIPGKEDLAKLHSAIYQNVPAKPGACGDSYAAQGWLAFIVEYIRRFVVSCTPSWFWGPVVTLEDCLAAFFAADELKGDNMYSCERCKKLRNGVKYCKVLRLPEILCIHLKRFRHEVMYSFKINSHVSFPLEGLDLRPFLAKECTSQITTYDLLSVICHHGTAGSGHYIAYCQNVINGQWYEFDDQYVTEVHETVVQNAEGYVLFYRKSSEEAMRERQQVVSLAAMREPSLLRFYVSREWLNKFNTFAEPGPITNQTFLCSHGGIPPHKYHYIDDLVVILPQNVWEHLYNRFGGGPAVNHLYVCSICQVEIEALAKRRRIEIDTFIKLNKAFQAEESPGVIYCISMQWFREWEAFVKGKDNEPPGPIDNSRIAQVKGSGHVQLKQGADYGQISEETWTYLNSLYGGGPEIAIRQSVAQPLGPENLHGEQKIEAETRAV

Structure (SMILES) | IC50 [1] | inhibition [2] [%] | inhibition (BL21-DE3) | IC50 [3] [µM] | IC50 [4] | inhibition [5] [%] | inhibition [6] [%] | IC50 ([1]; read-out: IC50) [µM] | IC50 ([4]; read-out: IC50) [µM]
C[C@H](c1cccc2ccccc12)N1CCC(C(=O)NCc2ccc3c(c2)OCO3)CC1 | Not Active | < 10 | Active | > 31 | Not Active | < 10 | 15 | – | –
C[C@H](c1cccc2ccccc12)N1CCC(C(=O)NCc2ccc(F)cc2)CC1 | – | < 10 | Active | > 31 | Not Active | < 10 | 15 | > 100 | –
C[C@H](c1cccc2ccccc12)N1CCC(C(=O)NCc2cccc(F)c2)CC1 | – | < 10 | Active | > 31 | Not Active | < 10 | 15 | > 100 | –
CC(=O)Nc1cccc(CNC(=O)C2CCN([C@H](C)c3cccc4ccccc34)CC2)c1 | – | < 10 | Active | > 31 | – | 10 | 15 | > 100 | > 100
